± gives the expanded uncertainty stated by the source.
Assays:
[1] = Liquid, Pycnometric method
[2] = molar heat capacity at constant pressure; details: Liquid, metal-bellows calorimeter

With COC [dimethyl ether] the mass density ([1]; 310 K, 2000 kPa) was 643.5 ± 1.8 kg/m3, the mass density ([1]; 310 K, 3000 kPa) was 646 ± 1.8 kg/m3 and the mass density ([1]; 310 K, 4000 kPa) was 648 ± 1.8 kg/m3. The mass density ([1]; 310 K, 5000 kPa) was 650.2 ± 1.7 kg/m3, the mass density ([1]; 320 K, 2000 kPa) was 626 ± 1.8 kg/m3 and the mass density ([1]; 320 K, 3000 kPa) was 628.7 ± 1.8 kg/m3. For the same compound, the mass density ([1]; 320 K, 4000 kPa) was 631.1 ± 1.8 kg/m3, the mass density ([1]; 320 K, 5000 kPa) was 634.3 ± 1.7 kg/m3 and the mass density ([1]; 330 K, 2000 kPa) was 606.5 ± 1.9 kg/m3. For the same compound, the mass density ([1]; 330 K, 3000 kPa) was 609.8 ± 1.9 kg/m3, the mass density ([1]; 330 K, 4000 kPa) was 613.4 ± 1.8 kg/m3 and the mass density ([1]; 330 K, 5000 kPa) was 616.5 ± 1.8 kg/m3. The mass density ([1]; 340 K, 2000 kPa) was 585.3 ± 1.9 kg/m3, the mass density ([1]; 340 K, 3000 kPa) was 589.6 ± 1.9 kg/m3 and the mass density ([1]; 340 K, 4000 kPa) was 593.6 ± 1.9 kg/m3. The mass density ([1]; 340 K, 5000 kPa) was 597.4 ± 1.9 kg/m3, the mass density ([1]; 350 K, 3000 kPa) was 566.8 ± 2.1 kg/m3 and the mass density ([1]; 350 K, 4000 kPa) was 572 ± 2 kg/m3. For the same compound, the mass density ([1]; 350 K, 5000 kPa) was 576.7 ± 1.9 kg/m3, the mass density ([1]; 360 K, 3000 kPa) was 540.2 ± 2.2 kg/m3 and the mass density ([1]; 360 K, 4000 kPa) was 547.4 ± 2.1 kg/m3. For the same compound, the mass density ([1]; 360 K, 5000 kPa) was 553.5 ± 2 kg/m3, the “molar heat capacity at constant pressure” value ([2]; 310 K, 2000 kPa) was 123.92 ± 6 J/K/mol and the “molar heat capacity at constant pressure” value ([2]; 310 K, 3000 kPa) was 122.08 ± 6 J/K/mol. The “molar heat capacity at constant pressure” value ([2]; 310 K, 4000 kPa) was 121.62 ± 6 J/K/mol, the “molar heat capacity at constant pressure” value ([2]; 310 K, 5000 kPa) was 121.16 ± 6 J/K/mol and the “molar heat capacity at constant pressure” value ([2]; 320 K, 2000 kPa) was 127.61 ± 6.4 J/K/mol. For the same compound, the “molar heat capacity at constant pressure” value ([2]; 320 K, 3000 kPa) was 125.77 ± 6.4 J/K/mol, the “molar heat capacity at constant pressure” value ([2]; 320 K, 4000 kPa) was 124.85 ± 6.4 J/K/mol and the “molar heat capacity at constant pressure” value ([2]; 320 K, 5000 kPa) was 124.85 ± 6.4 J/K/mol. For the same compound, the “molar heat capacity at constant pressure” value ([2]; 330 K, 2000 kPa) was 131.3 ± 6.4 J/K/mol, the “molar heat capacity at constant pressure” value ([2]; 330 K, 3000 kPa) was 128.53 ± 6.4 J/K/mol and the “molar heat capacity at constant pressure” value ([2]; 330 K, 4000 kPa) was 128.07 ± 6.4 J/K/mol. The “molar heat capacity at constant pressure” value ([2]; 330 K, 5000 kPa) was 127.15 ± 6.4 J/K/mol, the “molar heat capacity at constant pressure” value ([2]; 340 K, 2000 kPa) was 137.74 ± 6.9 J/K/mol and the “molar heat capacity at constant pressure” value ([2]; 340 K, 3000 kPa) was 134.98 ± 6.9 J/K/mol. For the same compound, the “molar heat capacity at constant pressure” value ([2]; 340 K, 4000 kPa) was 132.22 ± 6.4 J/K/mol, the “molar heat capacity at constant pressure” value ([2]; 340 K, 5000 kPa) was 129.45 ± 6.4 J/K/mol and the “molar heat capacity at constant pressure” value ([2]; 350 K, 3000 kPa) was 140.51 ± 6.9 J/K/mol. The “molar heat capacity at constant pressure” value ([2]; 350 K, 4000 kPa) was 137.28 ± 6.9 J/K/mol, the “molar heat capacity at constant pressure” value ([2]; 350 K, 5000 kPa) was 132.68 ± 6.4 J/K/mol and the “molar heat capacity at constant pressure” value ([2]; 360 K, 3000 kPa) was 153.87 ± 7.8 J/K/mol. For the same compound, the “molar heat capacity at constant pressure” value ([2]; 360 K, 4000 kPa) was 145.12 ± 7.4 J/K/mol and the “molar heat capacity at constant pressure” value ([2]; 360 K, 5000 kPa) was 136.36 ± 6.9 J/K/mol.
